According to US9822130B2, “Triazolo-pyrazinyl derivatives useful as soluble guanylate cyclase activators” (Merck Sharp & Dohme Corp., priority 2014, dated 2017):

Target: T1, sGC α1/β1 heterodimer stably expressed in CHO-K1 cell line (CHO-K1/sGC) (Homo sapiens, UniProt Q02108+Q02153)
T1 construct: expressed in transfected cells
T1 sequence (Q02108 1-690): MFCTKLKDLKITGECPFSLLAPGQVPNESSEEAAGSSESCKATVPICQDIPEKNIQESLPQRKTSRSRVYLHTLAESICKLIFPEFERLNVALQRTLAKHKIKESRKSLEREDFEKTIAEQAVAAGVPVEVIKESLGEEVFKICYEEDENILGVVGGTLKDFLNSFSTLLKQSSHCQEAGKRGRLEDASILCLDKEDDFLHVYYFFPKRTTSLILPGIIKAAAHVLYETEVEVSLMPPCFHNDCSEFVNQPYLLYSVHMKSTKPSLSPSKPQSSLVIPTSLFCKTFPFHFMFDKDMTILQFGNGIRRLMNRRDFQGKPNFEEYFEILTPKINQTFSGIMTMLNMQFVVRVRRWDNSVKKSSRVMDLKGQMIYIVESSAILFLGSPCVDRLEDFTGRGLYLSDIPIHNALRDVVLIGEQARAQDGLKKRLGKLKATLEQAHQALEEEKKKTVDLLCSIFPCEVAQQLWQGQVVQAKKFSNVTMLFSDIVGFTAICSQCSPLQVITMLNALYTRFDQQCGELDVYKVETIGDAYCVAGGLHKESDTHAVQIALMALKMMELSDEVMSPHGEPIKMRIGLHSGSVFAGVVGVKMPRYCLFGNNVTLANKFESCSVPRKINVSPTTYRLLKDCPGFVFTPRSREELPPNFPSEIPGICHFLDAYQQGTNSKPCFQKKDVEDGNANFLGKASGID
T1 sequence (Q02153 1-619): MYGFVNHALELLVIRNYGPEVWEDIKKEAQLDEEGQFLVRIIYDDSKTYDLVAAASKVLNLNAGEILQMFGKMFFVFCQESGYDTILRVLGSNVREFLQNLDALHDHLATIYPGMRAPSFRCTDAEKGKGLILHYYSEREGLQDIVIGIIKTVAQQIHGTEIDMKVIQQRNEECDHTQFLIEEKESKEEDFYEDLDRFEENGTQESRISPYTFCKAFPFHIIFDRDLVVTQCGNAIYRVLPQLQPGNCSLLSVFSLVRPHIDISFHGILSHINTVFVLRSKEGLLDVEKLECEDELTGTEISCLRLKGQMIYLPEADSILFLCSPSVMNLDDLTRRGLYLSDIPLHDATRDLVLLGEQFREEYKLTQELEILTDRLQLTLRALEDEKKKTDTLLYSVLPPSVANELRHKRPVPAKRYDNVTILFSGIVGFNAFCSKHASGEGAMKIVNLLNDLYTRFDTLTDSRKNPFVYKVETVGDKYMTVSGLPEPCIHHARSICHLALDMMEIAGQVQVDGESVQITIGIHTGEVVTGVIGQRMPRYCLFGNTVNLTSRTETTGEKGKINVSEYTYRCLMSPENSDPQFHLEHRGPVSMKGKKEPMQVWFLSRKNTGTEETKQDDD
Experiment: Cell-based sGC Functional Assay (CASA Assay), cGMP generation
Details: CHO-K1/sGC cells, 1 hr at 37° C., cGMP by HTRF, 4P fit; presence or absence of 1 μM DETA-NO not given; read-out: IP (nM) (inflection point)
Excerpt: sGC is a heme-containing enzyme that converts GTP to secondary messenger cGMP. Increases in cGMP levels affect several physiological processes including vasorelaxation through multiple downstream pathways. […] Heme-dependent activators (HDAs) preferentially activate sGC containing a ferrous heme group. To determine the effect of sGC activators on enzyme activity, the CASA assay was developed to monitor the generation of cGMP in a cell line that stably expresses the heterodimeric sGC protein.
A CHO-K1 cell line stably expressing the sGC α1/β1 heterodimer was generated using a standard transfection protocol. CHO-K1 cells were transfected with plasmids pIREShyghsGCα1 and pIRESneo-hsGCβ1 simultaneously using FUGENE reagent. Clones that stably express both subunits were selected with hygromycin and neomycin for ˜2 weeks. Clone #7 was chosen for the assay and was designated CHO-K1/sGC. CHO-K1/sGC cells were maintained in F-K12 medium containing 10% heat-inactivated Fetal Bovine Serum (FBS), 100 μg/mL penicillin/streptomycin, 0.5 mg/mL hygromycin and 0.25 mg/mL G418. The cells were then cryopreserved in LN2. On the day of the assay, cells thawed and resuspended in EBSS Assay Buffer (Sigma, E3024) supplemented with 5 mM MgCl2, 10 mM HEPES (4-(2-hydroxyethyl)piperazine-1-ethanesulfonic acid) and 0.05% BSA (bovine serum albumin) (EAB) and cell density was then adjusted to 4×10^5/mL with EAB, IBMX (3-isobutyl-1-methylxanthin, 0.5 mM) was added to inhibit degradation of cGMP. Compounds were diluted from DMSO stock solutions and added to the assay at a final DMSO concentration of 2.5%. Cells were incubated with compounds in the presence and absence of 1 μM of Diethylenetriamine/nitric oxide adduct (DETA-NO; Sigma, 17018) for 1 hr at 37° C. At the end of the incubation period, the reaction was terminated and the cells were lysed with the detection reagents from Cisbio Kits. The level of intracellular cGMP was determined using an HTRF-based assay kit (CisBio, 62GM2PEC), which detects the displacement of a fluorescence labeled cGMP from its specific antibody. The cGMP produced by test compounds was directly compared to the maximum cGMP production (this value was set to equal 100% activation.) of the published sGC-HDA Compound A:
[drawing 300] (Example 1 in WO 2010/065275, published Jun. 10, 2010). The test compounds' activities were then expressed as a percentage of Compound A, the standard in every experiment. This percent activation was calculated either in the presence or absence of DETA-NO which was then plotted. IP and maximum fold induction was derived using ADA analysis software for 4P fit.
The compounds in the Examples of the instant invention had inflection points (IP) less than or equal to 10 μM and more particularly less than or equal to about 1 μM.

SMILES	EC50 [nM]
CC(F)(F)c1ccc(C2(C)C(=O)Nc3nc(-c4cn5ncnc5c(CCC(F)(F)C(F)(F)F)n4)nc(N)c32)cn1 (racemic) [Example 16B, 4-amino-5-(6-(1,1-difluoroethyl)pyridin-3-yl)-5-methyl-2-(8-(3,3,4,4,4-pentafluorobutyl)-[1,2,4]triazolo[1,5-a]pyrazin-6-yl)-5H-pyrrolo[2,3-d]pyrimidin-6(7H)-one]	13.1
Cc1ccc(C2(C3CC3)C(=O)Nc3nc(-c4cn5ncnc5c(CCC(F)(F)C(F)(F)F)n4)nc(N)c32)nc1 (racemic) [Example 17B, 4-amino-5-cyclopropyl-5-(5-methylpyridin-2-yl)-2-(8-(3,3,4,4,4-pentafluorobutyl)-[1,2,4]triazolo[1,5-a]pyrazin-6-yl)-5H-pyrrolo[2,3-d]pyrimidin-6(7H)-one]	36.1
Cc1cnc(C2(C3CC3)C(=O)Nc3nc(-c4cn5ncnc5c(CCC(F)(F)C(F)(F)F)n4)nc(N)c32)cn1 (racemic) [Example 21B, 4-amino-5-cyclopropyl-5-(5-methylpyrazin-2-yl)-2-(8-(3,3,4,4,4-pentafluorobutyl)-[1,2,4]triazolo[1,5-a]pyrazin-6-yl)-5H-pyrrolo[2,3-d]pyrimidin-6(7H)-one]	43.1
CC(F)(F)c1ccc(C2(C)C(=O)Nc3nc(-c4cn5ncnc5c(CCCC(F)(F)F)n4)nc(N)c32)cn1 (racemic) [Example 45B, 4-amino-5-(6-(1,1-difluoroethyl)pyridin-3-yl)-5-methyl-2-(8-(4,4,4-trifluorobutyl)-[1,2,4]triazolo[1,5-a]pyrazin-6-yl)-5H-pyrrolo[2,3-d]pyrimidin-6(7H)-one]	44.2
Cc1ccc(C2(C3CC3)C(=O)Nc3nc(-c4cn5ncnc5c(CCCC(F)(F)F)n4)nc(N)c32)nc1 (racemic) [Example 47B, 4-amino-5-cyclopropyl-5-(5-methylpyridin-2-yl)-2-(8-(4,4,4-trifluorobutyl)-[1,2,4]triazolo[1,5-a]pyrazin-6-yl)-5H-pyrrolo[2,3-d]pyrimidin-6(7H)-one]	144
Cc1nc(C2(C)C(=O)Nc3nc(-c4cn5ncnc5c(CCCC(F)(F)F)n4)nc(N)c32)ccc1C(F)(F)F (racemic) [Example 49B, 4-amino-5-methyl-5-(6-methyl-5-(trifluoromethyl)pyridin-2-yl)-2-(8-(4,4,4-trifluorobutyl)-[1,2,4]triazolo[1,5-a]pyrazin-6-yl)-5H-pyrrolo[2,3-d]pyrimidin-6(7H)-one]	595
CC1(c2ncc(C(F)(F)F)cn2)C(=O)Nc2nc(-c3cn4ncnc4c(CCCC(F)(F)F)n3)nc(N)c21 (racemic) [Example 51B, 4-amino-5-methyl-2-(8-(4,4,4-trifluorobutyl)-[1,2,4]triazolo[1,5-d]pyrazin-6-yl)-5-(5-(trifluoromethyl)pyrimidin-2-yl)-5H-pyrrolo[2,3-d]pyrimidin-6(7H)-one]	15.1
CCCCc1nc(-c2nc(N)c3c(n2)NC(=O)C3(c2ccc(C)cn2)C2CC2)cn2ncnc12 (racemic) [Example 72B, 4-amino-2-(8-butyl-[1,2,4]triazolo[1,5-a]pyrazin-6-yl)-5-cyclopropyl-5-(5-methylpyridin-2-yl)-5H-pyrrolo[2,3-d]pyrimidin-6(7H)-one]	28.5
Nc1nc(-c2cn3ncnc3c(CCCC(F)(F)F)n2)nc2c1C(c1ccc(C(F)(F)F)cn1)(C1CC1)C(=O)N2 (single isomer, unassigned) [Example 2A, 4-Amino-5-cyclopropyl-2-(8-(4,4,4-trifluorobutyl)-[1,2,4]triazolo[1,5-a]pyrazin-6-yl)-5-(5-(trifluoromethyl)pyridin-2-yl)-5H-pyrrolo[2,3-d]pyrimidin-6(7H)-one]	128
Cc1nnc(C2(C)C(=O)Nc3nc(-c4cn5ncnc5c(CCC(F)(F)C(F)(F)F)n4)nc(N)c32)o1 (single isomer, unassigned) [Example 97B, 4-Amino-5-methyl-5-(5-methyl-1,3,4-oxadiazol-2-yl)-2-(8-(3,3,4,4,4-pentafluorobutyl)-[1,2,4]triazolo[1,5-a]pyrazin-6-yl)-5H-pyrrolo[2,3-d]pyrimidin-6(7H)-one]	219
Nc1nc(-c2cn3ncnc3c(CCCC(F)(F)F)n2)nc2c1C(c1ncc(C(F)(F)F)cn1)(C1CC1)C(=O)N2 (single isomer, unassigned) [Example 180B, 4-amino-5-cyclopropyl-2-(8-(4,4,4-trifluorobutyl)-[1,2,4]triazolo[1,5-a]pyrazin-6-yl)-5-(5-(trifluoromethyl)pyrimidin-2-yl)-5,7-dihydro-6H-pyrrolo[2,3-d]pyrimidin-6-one]	488
CC1(c2ccc(Cl)cn2)C(=O)Nc2nc(-c3cn4ncnc4c(CCC(F)(F)C(F)(F)F)n3)nc(N)c21 (stereo not drawn) [Example 3A, 4-amino-5-(5-chloropyridin-2-yl)-5-methyl-2-(8-(3,3,4,4,4-pentafluorobutyl)-[1,2,4]triazolo[1,5-a]pyrazin-6-yl)-5H-pyrrolo[2,3-d]pyrimidin-6(7H)-one]	40.4
CC1(c2ccc(Cl)c(F)c2)C(=O)Nc2nc(-c3cn4ncnc4c(CCC(F)(F)C(F)(F)F)n3)nc(N)c21 (stereo not drawn) [Example 5B, 4-amino-5-(4-chloro-3-fluorophenyl)-5-methyl-2-(8-(3,3,4,4,4-pentafluorobutyl)-[1,2,4]triazolo[1,5-a]pyrazin-6-yl)-5H-pyrrolo[2,3-d]pyrimidin-6(7H)-one]	20.9
Nc1nc(-c2cn3ncnc3c(CCC(F)(F)C(F)(F)F)n2)nc2c1C(c1ccc(F)c(F)c1)(C1CC1)C(=O)N2 (stereo not drawn) [Example 6A, 4-amino-5-cyclopropyl-5-(3,4-difluorophenyl)-2-(8-(3,3,4,4,4-pentafluorobutyl)-[1,2,4]triazolo[1,5-a]pyrazin-6-yl)-5H-pyrrolo[2,3-d]pyrimidin-6(7H)-one]	27
Nc1nc(-c2cn3ncnc3c(CCC(F)(F)C(F)(F)F)n2)nc2c1C(c1ccc(Cl)cn1)(C1CC1)C(=O)N2 (stereo not drawn) [Example 7A, 4-amino-5-(5-chloropyridin-2-yl)-5-cyclopropyl-2-(8-(3,3,4,4,4-pentafluorobutyl)-[1,2,4]triazolo[1,5-a]pyrazin-6-yl)-5H-pyrrolo[2,3-d]pyrimidin-6(7H)-one]	41.4
